Test results published in patent US20220289685A1, “ANTIMALARIAL HEXAHYDROPYRIMIDINE ANALOGUES” (UCB BIOPHARMA SRL, priority 2019, published 2022).
Structures can show the parent of a compound that is named as a salt.

These molecules were tested on Plasmodium falciparum 3D7 strain (assay: P. falciparum 3D7 asexual blood stage assay (SYBR green readout)). Conditions: Plasmodium falciparum, 3D7, Erythrocyte, 72 h.
Format: cell-based
In short: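 P. falciparum 3D7 in A+ erythrocytes (5% haematocrit, 0.5% parasitaemia) exposed 72 h at 37 °C under 1% O2/3% CO2 to 20-point 1.5-fold titrations, 50,000–15 nM in 0.5% DMSO. SYBR green lysis overnight, fluorescence 485/528 nm; normalized to mefloquine and DMSO, EC50 from biphasic two-site fit.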

Q: With `C[C@@H]1C[C@H](N2C(=N)N[C@](C)(c3cccc(NC(=O)c4ncc(F)cc4C(F)(F)F)c3Cl)CC2=O)CCO1` (relative stereo) [Example 94, N-(2-Chloro-3-{(4S)-2-imino-4-methyl-1-[(2R*,4R*)-2-methyl-tetrahydropyran-4-yl]-6-oxo-hexahydropyrimidin-4-yl}phenyl)-5-fluoro-3-(trifluoromethyl)-pyridine-2-carboxamide hydrochloride] as the molecule, how does the IC50 read?
A: 81 nM

Q: With `CC#Cc1cccc(C(=O)Nc2cccc([C@]3(C)CC(=O)N([C@@H]4CCO[C@H](C)C4)C(=N)N3)c2Cl)c1` (relative stereo) [Example 109, N-(2-Chloro-3-{(4S)-2-imino-4-methyl-1-[(2R*,4R*)-2-methyl-tetrahydropyran-4-yl]-6-oxo-hexahydropyrimidin-4-yl}phenyl)-3-(prop-1-ynyl)benzamide hydrochloride] as the molecule, how does the IC50 read?
A: 23 nM

Q: With `C[C@@H]1C[C@H](N2C(=N)N[C@](C)(c3cccc(NC(=O)c4cnc5ccccc5n4)c3Cl)CC2=O)CCO1` (relative stereo) [Example 31, N-(2-Chloro-3-{(4S)-2-imino-4-methyl-1-[(2R*,4R*)-2-methyl-tetrahydropyran-4-yl]-6-oxo-hexahydropyrimidin-4-yl}phenyl)-quinoxaline-2-carboxamide trifluoroacetic acid salt] as the molecule, how does the IC50 read?
A: 13 nM

Q: `Cc1ccncc1C(=O)Nc1cccc([C@]2(C)CC(=O)N([C@@H]3CCO[C@H](C)C3)C(=N)N2)c1Cl` (relative stereo) [Example 82, N-(2-Chloro-3-{(4S)-2-imino-4-methyl-1-[(2R*,4R*)-2-methyl-tetrahydropyran-4-yl]-6-oxo-hexahydropyrimidin-4-yl}phenyl)-4-methylpyridine-3-carboxamide trifluoroacetic acid salt] was tested. Which IC50 did it give?
A: 35 nM

Q: With `C[C@@H]1C[C@H](N2C(=N)N[C@](C)(c3cccc(NC(=O)c4ccc(C#N)cc4)c3Cl)CC2=O)CCO1` (relative stereo) [Example 10, N-(2-Chloro-3-{(4S)-2-imino-4-methyl-1-[(2R*,4R*)-2-methyl-tetrahydropyran-4-yl]-6-oxo-hexahydropyrimidin-4-yl]phenyl)-4-cyanobenzamide hydrochloride] as the molecule, how does the IC50 read?
A: 290 nM

Q: For `Cc1cc(Cl)cc(C(=O)Nc2cccc([C@]3(C)CC(=O)N([C@@H]4CCO[C@H](C)C4)C(=N)N3)c2Cl)c1` (relative stereo) [Example 22, 3-Chloro-N-(2-chloro-3-{(4S)-2-imino-4-methyl-1-[(2R*,4R*)-2-methyltetrahydropyran-4-yl]-6-oxo-hexahydropyrimidin-4-yl}phenyl)-5-methylbenzamide hydrochloride], which IC50 is on record?
A: 9 nM

Q: `C[C@@H]1C[C@H](N2C(=N)N[C@](C)(c3cccc(NC(=O)c4cc(Cl)c(F)cc4F)c3Cl)CC2=O)CCO1` (relative stereo) [Example 69, 5-Chloro-N-(2-chloro-3-{(4S)-2-imino-4-methyl-1-[(2R*,4R*)-2-methyltetrahydropyran-4-yl]-6-oxo-hexahydropyrimidin-4-yl}phenyl)-2,4-difluorobenzamide hydrochloride] was tested. Which IC50 did it give?
A: 25 nM

Q: `C[C@@H]1C[C@H](N2C(=N)N[C@](C)(c3cccc(NC(=O)c4cnc5ccncc5c4)c3Cl)CC2=O)CCO1` (relative stereo) [Example 43, N-(2-Chloro-3-{(4S)-2-imino-4-methyl-1-[(2R*,4R*)-2-methyl-tetrahydropyran-4-yl]-6-oxo-hexahydropyrimidin-4-yl]phenyl)-1,6-naphthyridine-3-carboxamide trifluoroacetic acid salt] was tested. Which IC50 did it give?
A: 92 nM

Q: `Cc1cncc(C(=O)Nc2cccc([C@]3(C)CC(=O)N([C@@H]4CCO[C@H](C)C4)C(=N)N3)c2Cl)n1` (relative stereo) [Example 66, N-(2-Chloro-3-{(4S)-2-imino-4-methyl-1-[(2R*,4R*)-2-methyl-tetrahydropyran-4-yl]-6-oxo-hexahydropyrimidin-4-yl}phenyl)-6-methylpyrazine-2-carboxamide hydrochloride] was tested. Which IC50 did it give?
A: 92 nM

Q: With `C[C@@H]1C[C@H](N2C(=N)N[C@](C)(c3cccc(NC(=O)c4ccncc4C(F)(F)F)c3Cl)CC2=O)CCO1` (relative stereo) [Example 89, N-(2-Chloro-3-{(4S)-2-imino-4-methyl-1-[(2R*,4R*)-2-methyl-tetrahydropyran-4-yl]-6-oxo-hexahydropyrimidin-4-yl}phenyl)-3-(trifluoromethyl)pyridine-4-carboxamide trifluoroacetic acid salt] as the molecule, how does the IC50 read?
A: 373 nM

Q: Which IC50 does the source give for `C[C@@H]1C[C@H](N2C(=N)N[C@](C)(c3cccc(NC(=O)c4ccc(F)cn4)c3Cl)CC2=O)CCO1` (relative stereo) [Example 13, N-(2-Chloro-3-{(4S)-2-imino-4-methyl-1-[(2R*,4R*)-2-methyl-tetrahydropyran-4-yl]-6-oxo-hexahydropyrimidin-4-yl]phenyl)-5-fluoropyridine-2-carboxamide hydrochloride] here?
A: 11 nM

Q: With `CC#Cc1cncc(C(=O)Nc2cccc([C@]3(C)CC(=O)N([C@@H]4CCO[C@H](C)C4)C(=N)N3)c2Cl)c1` (relative stereo) [Example 108, N-(2-Chloro-3-{(4S)-2-imino-4-methyl-1-[(2R*,4R*)-2-methyl-tetrahydropyran-4-yl]-6-oxo-hexahydropyrimidin-4-yl}phenyl)-5-(prop-1-ynyl)pyridine-3-carboxamide hydrochloride] as the molecule, how does the IC50 read?
A: 40 nM

Q: Which IC50 does the source give for `C[C@@H]1C[C@H](N2C(=N)N[C@](C)(c3cccc(NC(=O)c4cccc(C#N)n4)c3Cl)CC2=O)CCO1` (relative stereo) [Example 72, N-(2-Chloro-3-{(4S)-2-imino-4-methyl-1-[(2R*,4R*)-2-methyl-tetrahydropyran-4-yl]-6-oxo-hexahydropyrimidin-4-yl}phenyl)-6-cyanopyridine-2-carboxamide hydrochloride] here?
A: 14 nM

Q: `C[C@@H]1C[C@H](N2C(=N)N[C@](C)(c3cccc(NC(=O)c4cncnc4)c3Cl)CC2=O)CCO1` (relative stereo) [Example 38, N-(2-Chloro-3-{(4S)-2-imino-4-methyl-1-[(2R*,4R*)-2-methyl-tetrahydropyran-4-yl]-6-oxo-hexahydropyrimidin-4-yl]phenyl)-pyrimidine-5-carboxamide trifluoroacetic acid salt] was tested. Which IC50 did it give?
A: 110 nM

Q: Which IC50 does the source give for `C[C@@H]1C[C@H](N2C(=N)N[C@](C)(c3cccc(NC(=O)c4ccc(F)cc4)c3Cl)CC2=O)CCO1` (relative stereo) [Example 3, N-(2-Chloro-3-{(4S)-2-imino-4-methyl-1-[(2R*,4R*)-2-methyl-tetrahydropyran-4-yl]-6-oxo-hexahydropyrimidin-4-yl]phenyl)-4-fluorobenzamide hydrochloride] here?
A: 132 nM

Q: `C[C@@H]1C[C@H](N2C(=N)N[C@](C)(c3cccc(NC(=O)c4cccnc4C4CC4)c3Cl)CC2=O)CCO1` (relative stereo) [Example 57, N-(2-Chloro-3-{(4S)-2-imino-4-methyl-1-[(2R*,4R*)-2-methyl-tetrahydropyran-4-yl]-6-oxo-hexahydropyrimidin-4-yl]phenyl)-2-cyclopropylpyridine-3-carboxamide hydrochloride] was tested. Which IC50 did it give?
A: 476 nM

Q: With `COc1cncc(C(=O)Nc2cccc([C@]3(C)CC(=O)N([C@@H]4CCO[C@H](C)C4)C(=N)N3)c2Cl)n1` (relative stereo) [Example 68, N-(2-Chloro-3-{(4S)-2-imino-4-methyl-1-[(2R*,4R*)-2-methyl-tetrahydropyran-4-yl]-6-oxo-hexahydropyrimidin-4-yl}phenyl)-6-methoxypyrazine-2-carboxamide hydrochloride] as the molecule, how does the IC50 read?
A: 11 nM

Q: For `C[C@@H]1C[C@H](N2C(=N)N[C@](C)(c3cccc(NC(=O)c4cnccc4F)c3Cl)CC2=O)CCO1` (relative stereo) [Example 96, N-(2-Chloro-3-{(4S)-2-imino-4-methyl-1-[(2R*,4R*)-2-methyl-tetrahydropyran-4-yl]-6-oxo-hexahydropyrimidin-4-yl}phenyl)-4-fluoropyridine-3-carboxamide hydrochloride], which IC50 is on record?
A: 565 nM

Q: `C[C@@H]1C[C@H](N2C(=N)N[C@](C)(c3cccc(NC(=O)c4ccncn4)c3Cl)CC2=O)CCO1` (relative stereo) [Example 16, N-(2-Chloro-3-{(4S)-2-imino-4-methyl-1-[(2R*,4R*)-2-methyl-tetrahydropyran-4-yl]-6-oxo-hexahydropyrimidin-4-yl}phenyl)-pyrimidine-4-carboxamide hydrochloride] was tested. Which IC50 did it give?
A: 23 nM

Q: For `C[C@@H]1C[C@H](N2C(=N)N[C@](C)(c3cccc(NC(=O)c4cc(C#N)cc(C(F)(F)F)c4)c3Cl)CC2=O)CCO1` (relative stereo) [Example 95, N-(2-Chloro-3-{(4S)-2-imino-4-methyl-1-[(2R*,4R*)-2-methyl-tetrahydropyran-4-yl]-6-oxo-hexahydropyrimidin-4-yl}phenyl)-3-cyano-5-(trifluoromethyl)-benzamide hydrochloride], which IC50 is on record?
A: 34 nM

Q: With `C[C@@H]1C[C@H](N2C(=N)N[C@](C)(c3cccc(NC(=O)c4ccnn4C)c3Cl)CC2=O)CCO1` (relative stereo) [Example 51, N-(2-Chloro-3-{(4S)-2-imino-4-methyl-1-[(2R*,4R*)-2-methyl-tetrahydropyran-4-yl]-6-oxo-hexahydropyrimidin-4-yl}phenyl)-2-methylpyrazole-3-carboxamide trifluoroacetic acid salt] as the molecule, how does the IC50 read?
A: 59 nM

Same assay, conditions: Plasmodium falciparum, Erythrocyte; P. falciparum 3D7 in human erythrocytes, 72 h incubation, SYBR green fluorescence; read-out: IC50

Q: With `COc1ccc(F)cc1C(=O)Nc1cccc([C@]2(C)CC(=O)N([C@@H]3CCO[C@H](C)C3)C(=N)N2)c1Cl` (relative stereo) [Example 87, N-(2-Chloro-3-{(4S)-2-imino-4-methyl-1-[(2,R*,4R*)-2-methyl-tetrahydropyran-4-yl]-6-oxo-hexahydropyrimidin-4-yl}phenyl)-5-fluoro-2-methoxybenzamide trifluoroacetic acid salt] as the molecule, how does the IC50 read?
A: 18 nM
